Measured values: PubChem BioAssay (NCI)
“And” between values parts separate entries of the source, which are not always exact repeats. Identical values can stand only once.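 A five-concentration, 48-hour dose response in 96-well plates underlies each endpoint, interpolated linearly between surrounding concentrations. GI50 = concentration required for 50% inhibition of growth. Definition used: TGI = concentration required for complete inhibition of growth.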

Key:
Assay in all cases: NCI tumour cell line growth inhibition, 48 h
T-47D breast = system: T-47D breast
HT29 colon = system: HT29 colon
EKVX NSCLC = system: EKVX NSCLC
HCT-15 colon = system: HCT-15 colon
MDA-MB-435 = system: MDA-MB-435
SK-MEL-28 melanoma = system: SK-MEL-28 melanoma
NCI-H522 lung = system: NCI-H522 lung
RPMI-8226 leukemia = system: RPMI-8226 leukemia
SR leukemia = system: SR leukemia
SW-620 colon = system: SW-620 colon
SF-268 CNS = system: SF-268 CNS
DU-145 prostate = system: DU-145 prostate
SF-295 CNS = system: SF-295 CNS
RXF 393 renal = system: RXF 393 renal
OVCAR-8 ovarian = system: OVCAR-8 ovarian
HOP-92 NSCLC = system: HOP-92 NSCLC
BT-549 breast = system: BT-549 breast

SMILES	TGI (T-47D breast) [µM]	TGI (HT29 colon) [µM]	TGI (EKVX NSCLC)	TGI (HCT-15 colon) [µM]	TGI (MDA-MB-435) [µM]	TGI (SK-MEL-28 melanoma) [µM]	TGI (NCI-H522 lung) [µM]	TGI (RPMI-8226 leukemia) [µM]	TGI (SR leukemia) [µM]	TGI (SW-620 colon) [µM]	TGI (SF-268 CNS) [µM]	TGI (DU-145 prostate) [µM]	TGI (SF-295 CNS) [µM]	TGI (RXF 393 renal) [µM]	TGI (OVCAR-8 ovarian) [µM]	TGI (HOP-92 NSCLC) [µM]	TGI (BT-549 breast) [µM]	GI50 (EKVX NSCLC) [µM]
CCC(NC(C)c1ccccc1)C(O)c1ccc(OCc2ccccc2)c(OCc2ccccc2)c1 (stereo unspecified)	40.1	13	31.2 µM	29.9	26.7	36	35.1	10.7	5.58	20.3	36.4	32.1	35.4	23	30.1	16.7	–	–
COc1ccc(-c2c(N)n(-c3nc4ccccc4s3)c(=O)c3cc([N+](=O)[O-])ccc23)cc1	–	> 100	44.6 µM	> 100	> 100	> 100	23.5	> 100	> 100	> 100	56.6	–	97.1	30.9	23.2	> 100	> 100	–
c1ccc2c(C3NCCc4[nH]cnc43)cccc2c1 (stereo unspecified)	–	> 100	–	> 100	–	> 100	> 100	> 100	> 100	> 100	> 100	–	> 100	> 100	> 100	> 100	–	–
COC(=O)C1CC2(CCC1=O)Cc1ccccc1C2=O (stereo unspecified)	> 100	> 100	> 100 µM	> 100	–	> 100	> 100	> 100	> 100	> 100	> 100	> 100	> 100	> 100	> 100	–	> 100	–
COc1cc2cc(C(=O)N3CC(CCl)c4ccc(O)cc43)[nH]c2c(OC)c1OC (stereo unspecified)	0.547	0.0107	0.35 µM and 0.749 µM	0.0412	0.0158	0.00601	0.00168	–	> 100	0.137	0.145	0.661	0.00398	0.000301	0.0253	–	–	0.285
CC(=O)C1=CSC2[C@H](NC(=O)Cc3ccccc3)C(=O)N2C1C(=O)OC(c1ccccc1)c1ccccc1 (stereo partly specified)	–	> 100	> 100 µM	–	–	> 100	> 100	> 100	> 100	> 100	> 100	–	> 100	–	> 100	> 100	–	–
COc1ccc2[nH]c3c(c2c1)CCn1c-3nc2ccccc2c1=O	> 25	–	> 25 µM	> 25	> 25	> 25	> 25	> 25	> 25	> 25	> 25	–	> 25	–	> 25	–	–	–
COc1cccc(/C=C2/Sc3scc(-c4ccccc4)[n+]3C2=O)c1O	–	37.3	64.6 µM	29.9	> 100	40.9	52.8	–	–	43.8	> 100	56.9	> 100	29.8	35.4	51.2	45.1	–
CC1(C)CS(=O)(=O)CC(C)(C)C(=N/N)/C1=N\N	> 100	> 100	> 100 µM	> 100	> 100	> 100	> 100	–	> 100	> 100	> 100	> 100	> 100	–	> 100	> 100	–	–
CCOC(=O)C1=C(O)C(=O)c2ccsc2C1=O	–	> 100	> 100 µM	> 100	–	> 100	> 100	> 100	> 100	> 100	> 100	–	> 100	> 100	> 100	> 100	–	–
COC(=O)C1CCC(=O)N1CN(C(C)=O)c1ccccc1 (stereo unspecified)	> 100	> 100	> 100 µM	> 100	> 100	> 100	> 100	> 100	> 100	> 100	> 100	> 100	> 100	–	> 100	> 100	–	–
C=CCc1cc(OC)c2c(c1)C(O)CC(c1ccccc1)O2 (stereo unspecified)	–	> 100	> 100 µM	> 100	–	> 100	> 100	–	> 100	> 100	> 100	–	> 100	–	> 100	> 100	–	–
N#Cc1c(N)oc(-c2cccc([N+](=O)[O-])c2)c1C#N	> 100	37.6	> 100 µM	30.7	> 100	39.5	59.1	59.8	> 100	62	> 100	> 100	> 100	57.3	44.1	37.7	–	–
CCOC(=O)/C(C(=S)Nc1ccccc1)=C(/N)N1CCCC1	–	> 100	> 100 µM	> 100	> 100	> 100	> 100	> 100	> 100	> 100	> 100	> 100	> 100	> 100	> 100	53.2	–	–
CCOC(=O)c1sc2c(c1OC(=O)c1cccs1)c(=O)n(-c1ccccc1)c(=S)n2-c1ccccc1	> 100	17.2	79.5 µM	43.4	29.2	35.4	27.1	31.3	–	65.5	> 100	94.1	> 100	89.8	44.9	52.7	–	–
O=c1oc2ccccc2c2c(=O)c3ccc(OC/C(=N/O)c4ccc(Cl)cc4)cc3oc12	88.4	–	–	24.5	7.89	–	–	33.1	8.27	37	41.8	36.1	7.1	8.06	65.1	25.1	–	–
